Data from US20230203081A1, “LINCOSAMIDE ANTIBIOTICS AND USES THEREOF” (President and Fellows of Harvard College, priority 2020, published 2023).
Values after ≈ are worked out from the molar mass of the structure shown.

Legend:
Format in all cases: cell-based
S. aureus MP-549 msrA = test: microbe, parasite or virus in culture; conditions: Staphylococcus aureus, MP549MSRA, S. aureus MP-549 msrA
How it was run: (§1)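 Inoculum for broth microdilution was 5×10^5 CFU/mL final, prepared from overnight 35° C blood-agar subcultures (separate handling for streptococcal and anaerobic strains); MICs read by CLSI broth microdilution or agar dilution.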

S. aureus BAA 977 iErmA = test: microbe, parasite or virus in culture; conditions: Staphylococcus aureus, BAA977
How it was run: as §1

S. aureus MMX 3035 cErmA = test: MIC (broth microdilution or agar dilution, CLSI); conditions: Staphylococcus aureus, MMX3035CERMA; S. aureus MMX 3035 cErmA; read-out: MIC
How it was run: as §1

[1] = test system: E. faecalis MMX 847; cErmB; test: MIC (broth microdilution or agar dilution, CLSI); conditions: Enterococcus faecalis; E. faecalis MMX 847; cErmB; read-out: MIC
How it was run: as §1

[2] = test system: S. pneumoniae MMX 3031 cMefA; test: MIC (broth microdilution or agar dilution, CLSI); conditions: Streptococcus pneumoniae, MMX3031CMEFA, S. pneumoniae MMX 3031 cMefA; read-out: MIC
How it was run: as §1

H. influenzae ATCC 49247 = test: MIC (broth microdilution or agar dilution, CLSI); conditions: Haemophilus influenzae, ATCC49247; H. influenzae ATCC 49247; read-out: MIC
How it was run: as §1

S. pneumoniae ATCC 49619 = test: MIC (broth microdilution or agar dilution, CLSI); conditions: Streptococcus pneumoniae, ATCC49619, S. pneumoniae ATCC 49619; read-out: MIC
How it was run: as §1

E. coli MP-9 ΔTolC = test: MIC (broth microdilution or agar dilution, CLSI); conditions: Escherichia coli
How it was run: as §1

S. aureus ATCC 29213 = test: MIC (broth microdilution or agar dilution, CLSI); conditions: Staphylococcus aureus, ATCC29213, S. aureus ATCC 29213; read-out: MIC
How it was run: as §1

S. pyogenes ATCC 19615 = test: MIC (broth microdilution or agar dilution, CLSI); conditions: Streptococcus pyogenes, ATCC19615, S. pyogenes ATCC 19615; read-out: MIC
How it was run: as §1

[3] = test system: S. pneumoniae MMX 3028 cErmB; test: MIC (broth microdilution or agar dilution, CLSI); conditions: Streptococcus pneumoniae, MMX3028CERMB; S. pneumoniae MMX 3028 cErmB; read-out: MIC
How it was run: as §1

E. faecalis ATCC 29212 = test: MIC (broth microdilution or agar dilution, CLSI); conditions: Enterococcus faecalis, ATCC29212, E. faecalis ATCC 29212; read-out: MIC
How it was run: as §1

[4] = test system: S. pyogenes MMX 946; cErmB; test: MIC (broth microdilution or agar dilution, CLSI); conditions: Streptococcus pyogenes; S. pyogenes MMX 946; cErmB; read-out: MIC
How it was run: as §1

E. coli ATCC 25922 = test: MIC (broth microdilution or agar dilution, CLSI); conditions: Escherichia coli, ATCC25922; E. coli ATCC 25922; read-out: MIC
How it was run: as §1

[5] = test system: E. coli MP-74 LptD mutant; test: MIC (broth microdilution or agar dilution, CLSI); conditions: Escherichia coli
How it was run: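 Triplicate CLSI determinations by broth or agar dilution, compound at 128-0.06 μg/mL in 2.5% DMSO; special handling for anaerobes. Broth microdilution used 5×10^5 CFU/mL inocula in cation-adjusted Mueller-Hinton broth.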

SMILES | MIC (S. aureus MP-549 msrA) [mg/L] | MIC (S. aureus BAA 977 iErmA) [mg/L] | MIC (S. aureus MMX 3035 cErmA) [mg/L] | MIC [1] [mg/L] | MIC [2] [mg/L] | MIC (H. influenzae ATCC 49247) [mg/L] | MIC (S. pneumoniae ATCC 49619) [mg/L] | MIC (E. coli MP-9 ΔTolC) [mg/L] | MIC (S. aureus ATCC 29213) [mg/L] | MIC (S. pyogenes ATCC 19615) [mg/L] | MIC [3] [mg/L] | MIC (E. faecalis ATCC 29212) [mg/L] | MIC [4] [mg/L] | MIC (E. coli ATCC 25922) [mg/L] | MIC [5] [mg/L]
CSC1O[C@H]([C@H](NC(=O)[C@@H]2[C@@H]3OCC[C@H](CC(C)C)C[C@H]3CN2C)[C@H](C)Cl)CC(O)[C@H]1O (stereo partly drawn) [FSA-513003a] | 0.12 (≈ 0.243 µM) | 0.12 (≈ 0.243 µM) | 16 (≈ 32.4 µM) | 8 (≈ 16.2 µM) | ≤ 0.06 | 2 (≈ 4.06 µM) | 0.06 (≈ 0.122 µM) | 1 (≈ 2.03 µM) | 0.12 (≈ 0.243 µM) | 0.06 (≈ 0.122 µM) | 8 (≈ 16.2 µM) | 0.12 (≈ 0.243 µM) | 8 (≈ 16.2 µM) | 32 (≈ 64.9 µM) | 2 (≈ 4.06 µM)
CSC1O[C@H]([C@H](NC(=O)[C@H]2NC[C@@H]3C[C@@H](CC(C)C)CCO[C@H]32)[C@H](C)Cl)CC(O)[C@H]1O (stereo partly drawn) [FSA-513018a] | ≤ 0.06 | ≤ 0.06 | 8 (≈ 16.7 µM) | 2 (≈ 4.17 µM) | ≤ 0.06 | 2 (≈ 4.17 µM) | ≤ 0.06 | 0.5 (≈ 1.04 µM) | ≤ 0.06 | ≤ 0.06 | 0.5 (≈ 1.04 µM) | ≤ 0.06 | 0.5 (≈ 1.04 µM) | 16 (≈ 33.4 µM) | 2 (≈ 4.17 µM)
CSC1O[C@H]([C@H](NC(=O)[C@@H]2[C@@H]3OCC[C@@H](C4CCCC4)C[C@H]3CN2C)[C@H](C)Cl)CC(O)[C@H]1O (stereo partly drawn) [FSA-513001b] | 0.12 (≈ 0.238 µM) | 0.12 (≈ 0.238 µM) | 32 (≈ 63.4 µM) | 16 (≈ 31.7 µM) | ≤ 0.06 | 4 (≈ 7.92 µM) | 0.06 (≈ 0.119 µM) | 2 (≈ 3.96 µM) | 0.12 (≈ 0.238 µM) | 0.06 (≈ 0.119 µM) | 16 (≈ 31.7 µM) | 0.12 (≈ 0.238 µM) | 16 (≈ 31.7 µM) | 64 (≈ 127 µM) | 4 (≈ 7.92 µM)
